Assay results reported in article PMC5620575 (Pharmaceutics, 2017).
Read-outs that look alike come from different tables or passages of the source.

Experiments:
[1] = design: method as in unpublished data from our laboratory; conditions: rabbit urine after IV administration; ref unpublished data from our laboratory; cited from earlier work
[2] = biopharmaceutical classification system (BCS) class; conditions: assigned from lower aqueous solubility than Lzd and calculated Log P less than 1.7
Escherichia coli = test system: Escherichia coli; design: method as in PMID 12467705, PMID 15911326, PMID 17140706, PMID 19376613, PMID 23811087; conditions: cited from earlier work
[3] = plasma protein binding (ultrafiltration); type: in vitro ADME; conditions: for fraction unbound at 1 h, 250 μg/L / fraction unbound at 1 h, 1000 μg/L / fraction unbound at 1 h: rabbit, plasma; for fraction unbound at 1 h, 250 μg/L / fraction unbound at 1 h, 1000 μg/L: n = 3, read-out: Plasma protein binding (% bound) (converted)
Method: The remaining volume of the plasma samples obtained by centrifugation in the blood to plasma partition experiment, about 600 μL, was immediately placed in disposable ultrafiltration devices (Centrifree®, EMD Millipore Corp., Billerica, MA, USA), and centrifuged in a temperature controlled centrifuge at 37 °C. The ultrafiltrate collected in the ultrafiltration device cup was stored at −20 °C until analysis. The plasma protein binding for the three compounds in rabbit plasma was determined in triplicates at two different concentrations. The total (free + bound) plasma concentration is the concentration in the plasma samples obtained by centrifugation in the blood to plasma partition experiment, while the free (unbound) concentration is the concentration in the ultrafiltrate. The percentage bound was calculated from the free concentration and the corresponding total concentration according to Equation (1). (1) % Bound = Total concentration−Free concentration/Total concentration × 100

[4] = tissue to plasma distribution; type: in vivo; conditions: New Zealand White, rabbit, 2 x 10 mg/kg IV, 2 h after second dose, n = 3
Method: Three groups of White New Zealand rabbits (n = 3, each) weighing 3.0–3.5 kg were used. Each group received 10 mg/kg of one compounds administered intravenously over a period of 3–5 min, followed one hour later by a second IV dose of 10 mg/kg. Two h later, the rabbits were euthanized with an IV dose of pentobarbital. Plasma and tissue samples, including kidney, liver, lungs, spleen, heart, muscles, and vetrus fluid were collected immediately, and stored at −80 °C until analysis.
Plasma ultra-filtrate samples were analyzed using the same procedures for the plasma. Tissue homogenates were prepared by adding 1 gm of the tissues samples to 4 g of phosphate buffer, pH 7.4 (1:4, w/w), then homogenization using Tissue-Tearor, Bio-Spec Products Inc. (Bartlesville, OK, USA). Aliquots of 200 μL of tissue homogenate samples were analyzed using the procedures for the plasma and the concentrations were determined using plasma calibrators as described and validated previously for Lzd and PH027 [18].
The tissue to plasma concentration ratios for the three compounds were calculated from the ratio of the tissue homogenate concentrations corrected for the dilution during the homoginization process and the plasma concentrations. Generally, the three compounds have very good distribution to all tissues. The tissue to plasma distribution ratios for the novel compounds were more than one in kidney, lung, liver, heart, muscles and spleen, and the ratios were more than those for Lzd in all investigated tissues. Table 3, summerizes the tissue to plasma distribution ratios for the three compounds in different tissues.

[5] = pharmacokinetics after single IV administration; type: in vivo; conditions: rabbit, 5 mg/kg; for AUC / half-life / k el: plasma; for AUC / half-life / CLT: n = 4; for k el: n = 4, read-out: Elimination rate constant (converted)
From the text: IV administration of the compounds under investigation, and collection of blood samples were through a catheter inserted in the marginal ear vein of the rabbit (I-Cath, CharterMed Inc., Winston-Salem, NC, USA). After IV drug administration, blood was withdrawn to fill the cannula and then reinjected three times before obtaining any blood samples to prevent contamination. Furthermore, the cannula was flushed with heparinized saline to prevent blockage of the cannula and prevent sample to sample contamination.
Urine samples were collected utilizing Foly Catheter (size French 8). The catheter was inserted into the rabbit bladder using a lubricant. When urine is collected over a specific time interval, the bladder was irrigated with 3 × 15 mL normal saline at 3 min, 6 min, and 10 min before the end of the urine collection interval [15, 16]. Irrigation of the bladder is necessary to obtain the majority of the drug eliminated in urine during the collection interval.
Three groups of rabbits (n = 4, each) received 5 mg/kg dose of each compound via the IV catheter. This dose was selected based on the results of a preliminary experiment to achieve measurable plasma concentrations for 8 h using our analytical methods, to ensure good characterization of the plasma concentration-time profile. Accurately weighed Lzd and PH027 powder were dissolved first in 600 μL of ethanol using an ultrasound water bath. The resulting solution was then diluted with normal saline to produce the solutions used for IV administration, which consist of the dose of the compound dissolved in 3 mL of 20% ethanol in normal saline. PH051 required the use of slightly larger volume of ethanol to achieve complete dissolution. So, 900 μL of ethanol were used, and the resulting solution used for IV administration consisted of PH051 dose dissolved in 3 mL of 30% ethanol in normal saline. The difference in the volume of ethanol administered, 300 μL, which was necessary to ensure complete dissolution of PH051, should not have a significant effect on the pharmacokinetic behavior of PH051. The solutions were administered slowly over a period of […] administration, serial blood and urine samples were obtained over a period of 8 h. Plasma was obtained from blood by centrifugation, and samples were kept at −80 °C until analysis. The volumes of urine samples were determined and recorded, and aliquots were kept at −80 °C until analysis.
(§1) The pharmacokinetic parameters for each of the three compounds including half-life (t1/2), volume of distribution (Vd), elimination rate constant (k), area under the plasma concentration-time curve (AUC), total body clearance (CLT), renal clearance (CLR), and oral bioavailability (F) were determined using the general pharmacokinetic parameter calculation procedures using PKPD tools for Microsoft Excel. The obtained pharmacokinetic parameters for each compound were compared using Statistical Package of Social Sciences (SPSS) to determine the difference in the pharmacokinetic behavior for the three compounds.

[6] = pharmacokinetics after single oral administration as microemulsion; type: in vivo; conditions: plasma, rabbit, 20 mg/kg, n = 3; for AUC / Cmax / Tmax: New Zealand White; for bioavailability: White New Zealand
Method: Three groups of rabbits (n = 3, each) received 20 mg/kg oral dose of each compound in the form of microemulsion through a pediatric feeding tube. After administration, serial blood samples were obtained through the IV catheter, over a period of 10 h. Plasma was obtained from blood by centrifugation, and samples were kept at −80 °C until analysis.
as §1

[7] = brain, read-out: Tissue to Plasma Concentration Ratio, Brain
[8] = eye (vitreous fluid), read-out: Tissue to Plasma Concentration Ratio, Eye (vetrus fluid)
[9] = heart, read-out: Tissue to Plasma Concentration Ratio, Heart
[10] = kidney, read-out: Tissue to Plasma Concentration Ratio, Kidney
[11] = liver, read-out: Tissue to Plasma Concentration Ratio, Liver
[12] = lung, read-out: Tissue to Plasma Concentration Ratio, Lung
[13] = muscle, read-out: Tissue to Plasma Concentration Ratio, Muscles
[14] = spleen, read-out: Tissue to Plasma Concentration Ratio, Spleen

Row | BCS class [2] | fraction unbound at 1 h, 250 μg/L [3] | fraction unbound at 1 h, 1000 μg/L [3] | fraction unbound at 1 h ([3]; over both concentrations) | Kp at 2 h [4, 7] | Kp at 2 h [4, 8] | Kp at 2 h [4, 9] | Kp at 2 h [4, 10] | Kp at 2 h [4, 11] | Kp at 2 h [4, 12] | Kp at 2 h [4, 13] | Kp at 2 h [4, 14] | AUC ([5]; White New Zealand) [µg·h/mL] | half-life ([5]; White New Zealand) [h] | k el ([5]; White New Zealand) [s⁻¹] | CLT [5] [L/h/kg] | AUC [6] [µg·h/mL] | Cmax [6] [µg/mL] | Structure (SMILES) | main metabolic route [1] | MIC (Escherichia coli) [mg/L] | further results
1 | Class IV | 0.613 | 0.622 | 0.62 to 0.63 | 0.223 ± 0.016 | 0.989 ± 0.1 | 1.36 ± 0.087 | 2.78 ± 0.089 | 2.91 ± 0.168 | 1.59 ± 0.041 | 1.25 ± 0.059 | 1.51 ± 0.026 | 5.67 ± 0.933 | 1.15 ± 0.202 | 0.000168 | 0.882 ± 0.23 | 16.6 | 2.87 ± 0.392 | O=C1O[C@@H](Cn2ccnn2)CN1c1ccc(N2CCOCC2)c(F)c1 [PH027] | metabolized mainly through oxidation | > 64 | CL renal ([5]; White New Zealand, urine and plasma, from renal excretion rate and plasma drug concentration, read-out: Renal clearance (converted)): 0.0038 L/h/kg; Tmax [6]: 2 h; bioavailability [6]: 72.9%
2 | Class IV | 0.089 | 0.091 ± 0.0019 | 0.09 to 0.1 | 0.179 ± 0.07 | 0.81 ± 0.11 | 1.56 ± 0.22 | 2.22 ± 0.063 | 1.7 ± 0.19 | 1.5 ± 0.16 | 1.58 ± 0.21 | 1.41 ± 0.27 | 1.95 ± 0.986 | 2.92 ± 0.768 | 6.6e-05 | 2.564 ± 1.212 | 1.08 ± 0.426 | 0.731 ± 0.412 | O=C1O[C@@H](Cn2ccnn2)CN1c1ccc(N2CCN(C(=O)C(F)(F)F)CC2)c(F)c1 [PH051] | amide hydrolysis | > 64 | plasma protein binding ([3]; rabbit plasma, over both concentrations): 91%; Fraction excreted unchanged in urine ([5]; ratio of renal clearance to total body clearance): only trace amounts; Tmax [6]: 0.5 h; bioavailability [6]: 13.9%
